A short description of the first series: Vapor pressure of fragrance components.
Conditions: not given
In the case of `CC1=CC(C)C(C=O)CC1` (stereo not shown), the “Vapor Pressure mm/Hg at 25° C.” value is given as 0.3 mm/Hg.
Turning to `CC(=O)O[C@@H]1C[C@H]2CC[C@]1(C)C2(C)C` (racemic) [isobornyl acetate], the “Vapor Pressure mm/Hg at 25° C.” value is 0.09 mm/Hg.
Same read-out and setting: then `CC(=O)C1(C)CC2=C(CCCC2(C)C)CC1C` (stereo not shown) [ISO E SUPER ®], with 0.002 mm/Hg.
Turning to `CC(C=O)Cc1ccc(C(C)(C)C)cc1` (stereo not shown) [LILIAL ®], the “Vapor Pressure mm/Hg at 25° C.” value stood at 0.003 mm/Hg.
Take `CC(=O)c1cc2c(cc1C)C(C)(C)C(C)CC2(C)C` (stereo not shown) [TONALID ®]: the “Vapor Pressure mm/Hg at 25° C.” value was 0.0001 mm/Hg.
As for `CC(=O)OC1CCC(C(C)(C)C)CC1` (stereo not shown) [VERTENEX ® HC], the “Vapor Pressure mm/Hg at 25° C.” value is listed as 0.03 mm/Hg.
Regarding `C=CCOC(=O)COCCC(C)C` [allyl amyl glycolate], the “Vapor Pressure mm/Hg at 25° C.” value is 0.07 mm/Hg.
Still for that read-out and setting: in the case of `CC(=O)OCc1ccccc1` [benzyl acetate] it was 0.1 mm/Hg.
On to `CC12CCC(CC1=O)C2(C)C` (stereo not shown) [camphor], for which the “Vapor Pressure mm/Hg at 25° C.” value was determined as 0.1 mm/Hg.
As for `CC/C=C\CCOC(C)=O` [cis-3-hexenyl acetate], the “Vapor Pressure mm/Hg at 25° C.” value is recorded as 2.0 mm/Hg.
For the compound `CC/C=C\CCOC(=O)c1ccccc1O` [cis-3-hexenyl salicylate], the “Vapor Pressure mm/Hg at 25° C.” value turned out to be 0.0008 mm/Hg.
Consider `CC(C)=CCCC(C)CCO` (stereo not shown) [citronellol], for which the “Vapor Pressure mm/Hg at 25° C.” value is 0.009 mm/Hg.
Take `CC(C=O)Cc1ccc(C(C)C)cc1` (stereo not shown) [cyclamal]: the “Vapor Pressure mm/Hg at 25° C.” value was 0.004 mm/Hg.
Regarding `C=CC(C)CCCC(C)(C)O` (stereo not shown) [dihydromyrcenol], the “Vapor Pressure mm/Hg at 25° C.” value was determined as 0.09 mm/Hg.
Turning to `CCCCCCC(C=O)=Cc1ccccc1` [hexyl cinnamic aldehyde], the “Vapor Pressure mm/Hg at 25° C.” value was determined as 0.0003 mm/Hg.
On to `CC1(C)[C@H]2CC[C@]1(C)[C@H](O)C2` [l-borneol], for which the “Vapor Pressure mm/Hg at 25° C.” value amounted to 0.02 mm/Hg.
Take `C=CC(C)(O)CCC=C(C)C` (stereo not shown) [linalool]: the “Vapor Pressure mm/Hg at 25° C.” value is listed as 0.05 mm/Hg.
For the compound `C=CC(C)(CCC=C(C)C)OC(C)=O` (stereo not shown) [linalyl acetate], the “Vapor Pressure mm/Hg at 25° C.” value was 0.07 mm/Hg.
Regarding `C=CCc1ccc(OC)cc1` [methyl chavicol], the “Vapor Pressure mm/Hg at 25° C.” value is on record as 0.09 mm/Hg.
On the same count and under the same terms, then `CCCCCCCCCC(C)C=O` (stereo not shown) [methyl nonyl acetaldehyde], with 0.009 mm/Hg; and `CC(=O)OC(C)c1ccccc1` (stereo not shown) [styralyl acetate], with 0.1 mm/Hg; and `CC1=CCC(C(C)(C)O)CC1` (stereo not drawn) [α-terpineol], with 0.02 mm/Hg.
On to `CC(=O)/C=C/C1=C(C)CCCC1(C)C` [β-ionone], for which the “Vapor Pressure mm/Hg at 25° C.” value amounted to 0.006 mm/Hg.
In the case of `OCCc1ccccc1` [β-phenyl ethyl alcohol], the “Vapor Pressure mm/Hg at 25° C.” value worked out at 0.02 mm/Hg.
For peach aldehyde coeur, the “Vapor Pressure mm/Hg at 25° C.” value was found to be 0.002 mm/Hg.

The nature of a further series: IFF permeation test: permeation rate through wax or polymer matrix. The note with it: matrix: carnauba wax.
Excerpt: Referring to FIGS. 4A and 4B, fluid 46 is located in jar 44. Jar 44 has sidearm 45. The fluid 46 reaches fluid level 47. Directly in line with fluid level 47 is membrane 41. The diffusion membrane 41 is held in place with flanges 43 and jar lip 42, using bolts 401a and 401b which secures the flange in place. The sidearm 45 is closed using closure 49. The permeability apparatus is shown using reference numeral 40. The IFF permeability test is based on the use of the apparatus of FIGS. 4A and 4B. The weight of membrane 41 is taken, initially, before being placed within the flange 43 and the jar lip 42. Substance 46 for which the permeability is to be measured is placed into jar 44 to fluid level 47. The apparatus containing fluid 46 remains in place for a fixed period of time. At the end of that period of time, bolts 401a and 401b as well as 401c are loosened, the flange 43 removed and membrane 41 is removed and weighed, thereby gathering sufficient data to determine the permeability of the particular substance 46. […] The Y axis measures weight loss and is indicated by reference numeral 54.
As to `C/C=C(\C)C(=O)OCC` [ethyl tiglate], the “permeation rate through matrix material” value was 4.4 × 10^−4.

The same series, now with this note: matrix: polyamide (MACROMELT 6030).
On to `C/C=C(\C)C(=O)OCC` [ethyl tiglate], for which the “permeation rate through matrix material” value is on record as 4.2 × 10^−4.

Staying with this series, now noted: matrix: polyethylene wax, molecular weight 500.
`C/C=C(\C)C(=O)OCC` [ethyl tiglate]: the “permeation rate through matrix material” value is 2.0 × 10^−5.

These data come from patent publication US6645479B1, “Targeted delivery of active/bioactive and perfuming compositions” (International Flavors & Fragrances Inc., priority 1997, dated 2003).
